Assay results from paper PMC8658773, “Two New Isoprenoid Flavonoids from Sophora flavescens with Antioxidant and Cytotoxic Activities” (Molecules, 2021).
pIC50: −log10 of the molar value. Read-outs that look alike come from different tables or passages of the source.

What was measured:
MCF7 cells [1] = test: Cytotoxic activity (MTS assay), MCF7; type: cell-based, human; conditions: for inhibition at 10 µM / pIC50: Homo sapiens, MCF7, 24 h; for inhibition at 10 µM: read-out: MCF7 inhibition rate; for pIC50: MTS
Procedure: (§1) The tests were conducted according to our previous reports. The cells were grown in DMEM medium supplemented with 10% FBS, penicillin (100 U/mL), and streptomycin (100 μg/mL) in a 37 °C and 5% CO2 incubator. The cytotoxic activities were performed by the MTS assay. Briefly, 28 compounds were dissolved with DMSO. The cells were seeded at 1 × 10^5 cells/mL in 96-well plates (100 µL/well) and cultured for 18 h when the cells filled the bottom of the wells. Then the supernatant was discard, the compounds (10 μM, 100 µL/well) were added to the culture and incubated for 24 h before cell viability measurement. 10 µL MTS reagent (0.5 mg/mL) were added and further incubated for 4 h. Finally, absorbance was read using an automatic micro-plate reader (Molecular Devices, USA) at 490 nm to test the cell viabilities, and the results were presented as the percent of non-treated control for each concentration. Irinotecan was used as the positive control. All measurements were repeated in triplicate. Data were expressed as the mean ± SD.

[2] = DPPH free radical scavenging assay; type: biochemical; conditions: for DPPH radical scavenging activity (inhibition rate): 20 μg/mL, SD in brackets
Procedure: The in vitro antioxidant activity tests were conducted according to previous reports. Among them, the DPPH free radical scavenging assay was slightly modified. Briefly, the DPPH material was precisely weighed, ethanol solution was added to obtain a concentration of 0.1 mmol/L (to use immediately, or store in the dark). Then, the compounds (100 µL, 40 µg/mL) with DPPH solution (100 µL) (Ai) were added to 96-well plates and incubated for 30 min at room temperature. Subsequently, the activity was measured using the Thermo Scientific Varioskan LUX ([…], VL0L00D0, USA), with an absorbance of 570 nm. Vitamin C (VC) (40 µg/mL) was used as the positive control.

HepG2 cells [3] = test: Cytotoxic activity (MTS assay), HepG2; type: cell-based, human; conditions: SD in brackets; for inhibition at 10 µM: Homo sapiens, HepG2, 10 µM, read-out: HepG2 cell inhibitory activity (Table S4)
MCF7 cells [4] = test: Cytotoxic activity (MTS assay), MCF7; type: cell-based, human; conditions: SD in brackets; for inhibition at 10 µM: Homo sapiens, MCF7, read-out: MCF-7 cell inhibitory activity (Table S6)
[5] = ABTS free radical scavenging assay; type: biochemical; conditions: for ABTS radical scavenging activity (inhibition rate): 20 μg/mL, SD in brackets
Procedure: The third assay, the ABTS free radical scavenging screen was performed by previous experiments with slight changes. First, we needed to prepare for the ABTS^+ solution. […] Then, they were mixed with equal volume at room temperature and kept away from light for 12 h, the mixed solution was diluted with ethanol until the absorbance of […]. Thus, the ABTS^+ solution was obtained. Furthermore, the compounds (100 µL, 40 µg/mL) with ABTS^+ solution (100 µL) were also added to the 96-well plates (as the value of Ai) and were interacted for 10 min at room temperature in the dark, then the absorbance at 734 nm was measured. VC was used as the positive control. Antioxidant capacity was calculated according to the first formula (the value of 100 µL ethanol with 100 µL ABTS^+ solution as A0, the value of 100 µL compounds with 100 µL ethanol as Aj). All experiments were carried out in triplicate.

HepG2 cells [6] = test: Cytotoxic activity (MTS assay), HepG2; type: cell-based, human; conditions: for pIC50: 24 h, MTS; for inhibition at 10 µM: HepG2, 24 h, read-out: HepG2 inhibition rate
Procedure: as §1

LO2 cells = test: Cytotoxic activity (MTS assay), LO2 normal cells; type: cell-based, human; conditions: for inhibition at 10 µM: Homo sapiens, L02, read-out: LO2 cell inhibitory activity (Table S7)
[7] = PTIO free radical scavenging assay; type: biochemical; conditions: for PTIO radical scavenging activity (inhibition rate): 8 μg/mL, SD in brackets
Procedure: PTIO free radical scavenging was also performed following previous reports with some modification. VC was used as the positive control. PTIO radicals were dissolved with phosphate buffer (PBS) (pH 7.4, 50 mM) with a concentration of 0.05 mg/mL. Then, the samples (40 µL, 40 µg/mL) and PTIO solution (160 µL) were added into 96-well plates (as the value of Ai). After being thoroughly mixed, the reaction solution was incubated at 37 °C in a water-bath for 2 h. Then, the absorbance was measured at 557 nm. PTIO free radical scavenging was calculated using the above equation. (40 µL PBS with 160 µL PTIO as A0, 40 µL compounds with 160 µL PBS as Aj).

A549 cells [8] = test: Cytotoxic activity (MTS assay), A549; type: cell-based, human; conditions: for pIC50: MTS
Procedure: as §1

A549 cells [9] = test: Cytotoxic activity (MTS assay), A549; type: cell-based, human; conditions: SD in brackets; for inhibition at 10 µM: Homo sapiens, A549, read-out: A549 cell inhibitory activity (Table S5)
[10] = system: HepG2, A549 and MCF7 cells; test: Cytotoxic activity (MTS assay), stated jointly for three cancer cell lines; type: cell-based; conditions: Homo sapiens, read-out: IC50 values against the three cancer cell lines (range)
Procedure: as §1

| Molecule | DPPH radical scavenging activity (inhibition rate) [2] | ABTS radical scavenging activity (inhibition rate) [5] | PTIO radical scavenging activity (inhibition rate) [7] | inhibition at 10 µM (MCF7 cells [1]) [%] | inhibition at 10 µM (HepG2 cells [3]) [%] | inhibition at 10 µM (MCF7 cells [4]) [%] | ABTS radical scavenging IC50 [5] [µg/mL] | inhibition at 10 µM (HepG2 cells [6]; Homo sapiens) [%] | inhibition at 10 µM (LO2 cells; SD in brackets) [%] | inhibition at 10 µM (A549 cells [9]) [%] | further results |
| --- | --- | --- | --- | --- | --- | --- | --- | --- | --- | --- | --- |
| kushenol A [Compound 13] | 25.6% (2.4%) | 81.5% (1.9%) | 35.6% (1.0%) | – | – | – | – | – | – | – | Inhibition of MCF7 cells (in words) (MCF7 cells [1]): could hardly inhibit; HepG2 cell inhibitory activity (Table S4) (HepG2 cells [3]; 10 μg/mL): 97.5% (0.1%); MCF-7 cell inhibitory activity (Table S6) (MCF7 cells [4]; 10 μg/mL): 11.5% (2.1%); pIC50 (HepG2 cells [6]): 5.16; LO2 cell inhibitory activity (Table S7) (LO2 cells; 10 μg/mL, SD in brackets): 26.8% (2.7%); Inhibition of A549 cells (in words) (A549 cells [8]): could hardly inhibit; A549 cell inhibitory activity (Table S5) (A549 cells [9]; 10 μg/mL): 17.6% (0.6%) |
| C=C(C)C(CC=C(C)C)Cc1c(O)c(OC)c2c(c1O)C(=O)C(O)C(c1ccc3c(c1)OCO3)O2 (stereo not drawn) [Compound 2, 5,7-dihydroxy-8-methoxy-6-(5-methyl-2-iso-hexenyl)-3′,4′-methylene dioxy-flavanonol] | 42.3% (1.5%) | – | 41.0% (2.6%) | 10.3 | 19.9 | 10.3 | 1.81 | 19.9 | 27.9 | 17.2 | – |
| CCc1c2c(nc3ccc(OC(=O)N4CCC(N5CCCCC5)CC4)cc13)-c1cc3c(c(=O)n1C2)COC(=O)[C@]3(O)CC [irinotecan, reference compound] | – | – | – | – | – | – | – | – | – | – | pIC50 (MCF7 cells [1]): 6.05; pIC50 (HepG2 cells [6]; Homo sapiens, HepG2): 6.22; pIC50 (A549 cells [8]; Homo sapiens, A549, 24 h): 6.00 |
| C=C(C)[C@H](CCC(C)(C)O)Cc1c(O)cc(OC)c2c1O[C@H](c1ccc(O)cc1O)[C@@H](O)C2=O [Compound 3, kushenol H] | 53.5% (0.4%) | – | – | 4.5 | 1.9 | -4.5 | 2.05 | 1.9 | 15.5 | 11.3 | – |
| C=C(C)C(CC=C(C)C)Cc1cc(OC)ccc1C1Oc2cc(O)cc(CC(CC=C(C)C)C(=C)C)c2C(=O)C1O (stereo not drawn) [Compound 1, 7-hydroxy-5,1-bis (5-methyl-2-isopropyl-hexene) -flavanonol] | 40.0% (4.9%) | – | 37.3% (3.4%) | 85 | 84.1 | 85 | – | 84 | 29.4 | 58 | pIC50 (MCF7 cells [1]): 5.12; pIC50 (HepG2 cells [6]; Homo sapiens, HepG2): 5.02; Cytotoxic effect on LO2 human normal cells (in words) (LO2 cells; compared with cancer cells): little effect; pIC50 [10]: 4.98 to 5.12; inhibition at 10 µM (A549 cells [8]; Homo sapiens, A549, 10 μM, 24 h, read-out: A549 inhibition rate): 58%; pIC50 (A549 cells [8]; Homo sapiens, A549, 24 h): 4.98 |
| COc1cc(O)c(CC=C(C)C)c(O)c1C(=O)/C=C/c1ccc(O)cc1 [Compound 7, xanthohumol] | 34.7% (1.9%) | 87.9% (2.0%) | 40.3% (1.4%) | – | 10.4 | 11.7 | – | – | 13.9 | 16.4 | – |
| CC(C)=CCc1c(O)cc(O)c2c1OC(c1ccc(O)cc1)CC2=O (stereo not drawn) [Compound 10, sophoraflavanone B] | 32.2% (1.9%) | 88.0% (2.1%) | 38.6% (1.3%) | – | 9.3 | 7.7 | – | – | 4.7 | 8 | – |
| CC(C)=CCc1c(O)cc(O)c2c(=O)c(O)c(-c3ccc(O)cc3)oc12 [Compound 15, noranhyoicaritin] | – | – | 68.0% (8.1%) | – | 8.8 | 5.8 | 1.91 | – | 7.7 | 13.4 | DPPH radical scavenging IC50 [2]: 2.42 µg/mL; PTIO radical scavenging IC50 [7]: 2.70 µg/mL |
| C=C(C)C(CCC(C)(C)O)Cc1cc(O)c(C(=O)/C=C/c2ccc(O)cc2O)c(OC)c1O (stereo not drawn) [Compound 5, kuraridinol] | 29.1% (8.7%) | 75.7% (1.5%) | 37.7% (1.8%) | – | 5.6 | 7.4 | – | – | -7.2 | -0.2 | – |
| COc1ccc(-c2coc3cc(O)cc(O)c3c2=O)cc1 [Compound 21, biochanin A] | 46.8% (1.8%) | 76.4% (1.3%) | 37.9% (0.6%) | – | 7.1 | 1 | – | – | 5.8 | 8.7 | – |
| C=C(C)C(CCC(C)(C)O)Cc1c(O)cc(OC)c2c1OC(c1ccc(O)cc1O)C(O)C2=O (stereo not drawn) [Compound 4, kushenol L] | 37.1% (3.0%) | – | 39.4% (1.3%) | 0.7 | 4.6 | -0.7 | 3.72 | 4.6 | 3.2 | 8.2 | – |
| O=c1cc(-c2ccc(O)c(O)c2)oc2cc(O)cc(O)c12 [Compound 23, luteolin] | – | – | 43.3% (2.0%) | – | 1.1 | -4.7 | 1.51 | – | 19.8 | 41.3 | DPPH radical scavenging IC50 [2]: 0.90 µg/mL |
